The text below walks through data of PubChem BioAssay (NCI).

Some test systems named below: 786-0 renal; A549 NSCLC; COLO 205 colon; DU-145 prostate; HS 578T breast; MALME-3M melanoma; MDA-MB-435; MOLT-4 leukemia; NCI-H522 lung; OVCAR-4 ovarian; PC-3 prostate; RPMI-8226 leukemia; SK-MEL-28 melanoma; SN12C renal; SNB-75 CNS; SW-620 colon; UACC-62 melanoma; HCC-2998 colon; MCF7 breast.
Common to all, as to assay: NCI anticancer screen, dose series, 48 h

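Five concentrations, 48 hours, 96-well plates. TGI marks complete inhibition of growth.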

In the case of `Cc1c2cnccc2nc2[nH]c3ccncc3c12`, the TGI with 786-0 renal is 63.1 µM; in the experiment with A549 NSCLC, greater than 100 µM; in the experiment on COLO 205 colon, greater than 100 µM; in the experiment on DU-145 prostate it was greater than 100 µM; in the experiment with HS 578T breast it was greater than 100 µM; in the experiment with MALME-3M melanoma, 14.1 µM. Further, the TGI with MDA-MB-435 is 27.6 µM; in the experiment with MOLT-4 leukemia, greater than 100 µM; in the experiment on NCI-H522 lung, 18.5 µM; with OVCAR-4 ovarian it was greater than 100 µM; in the experiment on PC-3 prostate, greater than 100 µM; in the experiment with RPMI-8226 leukemia, 19.5 µM. The TGI with SK-MEL-28 melanoma is greater than 100 µM; in the experiment on SN12C renal, greater than 100 µM; with SNB-75 CNS it was greater than 100 µM; in the experiment on SW-620 colon it was 65.8 µM; with UACC-62 melanoma, 41.5 µM.

For the molecule `CCOC(=O)CN1CCSC1=NC#N`, the TGI with A549 NSCLC, with COLO 205 colon, in the experiment on HCC-2998 colon, with MALME-3M melanoma, in the experiment with MCF7 breast and in the experiment on MOLT-4 leukemia was greater than 100 µM each time. Further, the TGI with NCI-H522 lung, in the experiment on OVCAR-4 ovarian, with RPMI-8226 leukemia, with SK-MEL-28 melanoma, in the experiment with SN12C renal and in the experiment with SNB-75 CNS was greater than 100 µM in each case. In addition, the TGI in the experiment with SW-620 colon and in the experiment on UACC-62 melanoma was greater than 100 µM throughout.

With `COC(=O)[C@@]12OC[C@]34C([C@@H](O)C1O)[C@@]1(C)CC(=O)C(O)=C(C)C1C[C@H]3OC(=O)[C@H](OC(=O)CC(C)C(F)(F)F)[C@H]42` (some centres undefined), the TGI in the experiment on 786-0 renal was found to be 0.708 µM; in the experiment on A549 NSCLC, 0.492 µM; with COLO 205 colon, 0.415 µM; in the experiment with HCC-2998 colon, 0.0599 µM; in the experiment on MALME-3M melanoma it was 0.0438 µM; in the experiment on MOLT-4 leukemia, 0.312 µM. The TGI came out at 0.088 µM in the experiment on NCI-H522 lung; 0.561 µM in the experiment with OVCAR-4 ovarian; 0.0512 µM with RPMI-8226 leukemia; 0.111 µM in the experiment on SK-MEL-28 melanoma; 0.911 µM in the experiment with SN12C renal; 0.187 µM with SNB-75 CNS. In addition, the TGI with SW-620 colon amounted to 1.37 µM; with UACC-62 melanoma, 0.0629 µM.

As for `CN=C(N)N/N=C(\C)c1ccc2oc3ccc(/C(C)=N/NC(N)=NC)cc3c2c1`, the TGI is greater than 100 µM in the experiment on 786-0 renal; greater than 100 µM with A549 NSCLC; greater than 100 µM in the experiment on COLO 205 colon; greater than 100 µM with DU-145 prostate; 4.97 µM in the experiment on HCC-2998 colon; greater than 100 µM in the experiment on MDA-MB-435. Also, the TGI in the experiment with MOLT-4 leukemia was 2.42 µM; in the experiment on OVCAR-4 ovarian, greater than 100 µM; with PC-3 prostate, 10.7 µM; with RPMI-8226 leukemia, 6.41 µM; with SK-MEL-28 melanoma, greater than 100 µM; in the experiment on SN12C renal it was greater than 24.5 µM. The figures for the TGI with SW-620 colon and in the experiment with UACC-62 melanoma were 5.33 µM and greater than 23.8 µM, respectively.

For the molecule `[O-]c1on[n+]2c1c(Nc1ccc(Cl)cc1)nc1ccccc12`, the TGI in the experiment with 786-0 renal, with A549 NSCLC, in the experiment on COLO 205 colon, with HCC-2998 colon, with MOLT-4 leukemia and in the experiment on NCI-H522 lung was greater than 100 µM each time. Moreover, the TGI with OVCAR-4 ovarian, in the experiment with RPMI-8226 leukemia, with SK-MEL-28 melanoma, in the experiment with SN12C renal, with SNB-75 CNS and in the experiment with SW-620 colon was greater than 100 µM each time. In addition, in the experiment on UACC-62 melanoma, the TGI was greater than 100 µM.

Take `CC(Oc1ccc(OCC2CCCCC2)cc1)C(=O)N(CCO)CCO` (centres undefined): the TGI with 786-0 renal, in the experiment with A549 NSCLC, in the experiment on HCC-2998 colon, in the experiment with MALME-3M melanoma, in the experiment with MOLT-4 leukemia and with NCI-H522 lung was greater than 100 µM each time. In addition, the TGI with OVCAR-4 ovarian, in the experiment with SK-MEL-28 melanoma, in the experiment on SN12C renal, in the experiment with SNB-75 CNS and with UACC-62 melanoma was greater than 100 µM each time.

Turning to `CCCCCCCCCCCC1N=C(N)NC(CCCO)=C1C(=O)OC` (centres undefined), the TGI in the experiment with A549 NSCLC is 30.4 µM; with DU-145 prostate, 34.6 µM; with HCC-2998 colon, 5.02 µM; in the experiment on HS 578T breast, 3.39 µM; in the experiment with MALME-3M melanoma, greater than 62.2 µM; in the experiment on MOLT-4 leukemia, 4.75 µM. Also, the TGI with NCI-H522 lung is 3.72 µM; with OVCAR-4 ovarian it was 9.15 µM; in the experiment on PC-3 prostate it was 3.93 µM; with RPMI-8226 leukemia it was 4.78 µM; in the experiment on SK-MEL-28 melanoma, 12.1 µM; in the experiment on SN12C renal it was greater than 100 µM. The TGI in the experiment with SNB-75 CNS came to 7.44 µM; in the experiment with UACC-62 melanoma it was 21.5 µM.

As to `CC(C)N1CSC(=S)N(Cc2ccccc2)C1`, the TGI in the experiment on A549 NSCLC, with COLO 205 colon, with HCC-2998 colon, in the experiment with HS 578T breast, in the experiment on MCF7 breast and in the experiment with MDA-MB-435 was greater than 10 µM in each case. For the same molecule, the TGI is 7.43 µM in the experiment on MOLT-4 leukemia; greater than 10 µM with OVCAR-4 ovarian; greater than 10 µM in the experiment with PC-3 prostate; greater than 10 µM in the experiment on RPMI-8226 leukemia; greater than 10 µM in the experiment with SK-MEL-28 melanoma; greater than 10 µM in the experiment on SN12C renal. The TGI with SNB-75 CNS, in the experiment with SW-620 colon and with UACC-62 melanoma was greater than 10 µM throughout.

Take `COc1cc(/C=C/C2=NN(c3cccc(S(=O)(=O)O)c3)C3(C2)C(Cl)C(=O)N3c2nc3ccccc3s2)ccc1O` (centres undefined): the TGI in the experiment with 786-0 renal was 32.2 µM; in the experiment on A549 NSCLC it was greater than 100 µM; with COLO 205 colon, 40.4 µM; with HCC-2998 colon, 38.2 µM; in the experiment on HS 578T breast, greater than 100 µM; with MALME-3M melanoma, 34.5 µM. The TGI with MCF7 breast is greater than 100 µM; in the experiment on MDA-MB-435, 32.1 µM; in the experiment on MOLT-4 leukemia, 44.9 µM; in the experiment on NCI-H522 lung, 30.4 µM; in the experiment on OVCAR-4 ovarian, 30.4 µM; in the experiment with PC-3 prostate, greater than 100 µM. The TGI worked out at 37.6 µM in the experiment on RPMI-8226 leukemia; 76.6 µM with SK-MEL-28 melanoma; 47.5 µM in the experiment on SN12C renal; 60 µM in the experiment with SNB-75 CNS; 48 µM with SW-620 colon; 43.1 µM in the experiment with UACC-62 melanoma.

Turning to `CC(CCc1ccc2c(c1)c(=N)c1ccc(N)cc1n2O)CC(C)(C)C` (centres undefined), the TGI with 786-0 renal was 2.82 µM; with A549 NSCLC, 3.22 µM; in the experiment on COLO 205 colon, 2.79 µM; in the experiment with MALME-3M melanoma, 3.37 µM; in the experiment with RPMI-8226 leukemia it was 4.64 µM; with SK-MEL-28 melanoma, 3.58 µM. Besides, the TGI in the experiment with SN12C renal was found to be 3.22 µM; in the experiment on SW-620 colon it was 3.07 µM; in the experiment on UACC-62 melanoma, 2.79 µM.
